Experiment [1] can be described thus: Inhibition of HIV1 reverse transcriptase Y181C/K103N double mutant infected in human MT4 cells assessed as reduction in virus-induced cytopathogenicity. Background: Damage to the host cells serves as the signal in cytopathic effect assays.
Experiment [2] in a line: Inhibition of HIV1 3B Y181C mutant infected in human MT2 cells assessed as reduction in virus-induced cytopathogenicity after 3 days by BrightGlo luciferase reporter gene assay.

The source of these data is BindingDB's records for doi:10.1016/j.ejmech.2019.07.019 (Isf College of Pharmacy, 2019).

pIC50: −log10 of the molar value.

By pIC50 is commonly meant the IC50 on a negative log10 scale, so that one unit is a factor of ten. For the compound `COP(=O)(c1cc(C)cc(/C=C/C#N)c1)c1c(C(N)=O)[nH]c2ccc(Cl)cc12` (configuration not stated) [IDX899], in experiment [1], the pIC50 was 4.96.

Turning to `CCCCC(O)(c1c(NC(=O)OCC)[nH]c2ccc(Br)cc12)C(F)(F)F` (configuration not stated), in experiment [2], the pIC50 is 5.71.
